US12685726B2, “Sulfoximines as inhibitors of NaV1.8” (Gruenenthal GmbH, priority 2022, dated 2026)

Target: T1, human NaV 1.8 (Homo sapiens, UniProt Q9Y5Y9)
T1 construct: expressed in transfected cells; host or cells: HEK (recombinant cell line)
Experiment: Automated whole-cell patch clamp (Qube384) voltage-clamp recordings of sodium currents in HEK-NaV1.8 cell line
Assay type: cell-based
Conditions: read-out: Potency category (human NaV 1.8 IC50)
Outline: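 HEK cells expressing NaV1.8 with b3, whole-cell automated voltage clamp at room temperature or 19° C.; CsF-based internal, pH 7.4 external. State-dependent (−120 mV, V1/2 4 s, −10 mV test pulses) and 10/20 Hz 40-pulse protocols; ~12 min compound, vehicle-corrected, IC50 by 4-parameter logistic fit.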

T1 sequence (Q9Y5Y9 whole entry): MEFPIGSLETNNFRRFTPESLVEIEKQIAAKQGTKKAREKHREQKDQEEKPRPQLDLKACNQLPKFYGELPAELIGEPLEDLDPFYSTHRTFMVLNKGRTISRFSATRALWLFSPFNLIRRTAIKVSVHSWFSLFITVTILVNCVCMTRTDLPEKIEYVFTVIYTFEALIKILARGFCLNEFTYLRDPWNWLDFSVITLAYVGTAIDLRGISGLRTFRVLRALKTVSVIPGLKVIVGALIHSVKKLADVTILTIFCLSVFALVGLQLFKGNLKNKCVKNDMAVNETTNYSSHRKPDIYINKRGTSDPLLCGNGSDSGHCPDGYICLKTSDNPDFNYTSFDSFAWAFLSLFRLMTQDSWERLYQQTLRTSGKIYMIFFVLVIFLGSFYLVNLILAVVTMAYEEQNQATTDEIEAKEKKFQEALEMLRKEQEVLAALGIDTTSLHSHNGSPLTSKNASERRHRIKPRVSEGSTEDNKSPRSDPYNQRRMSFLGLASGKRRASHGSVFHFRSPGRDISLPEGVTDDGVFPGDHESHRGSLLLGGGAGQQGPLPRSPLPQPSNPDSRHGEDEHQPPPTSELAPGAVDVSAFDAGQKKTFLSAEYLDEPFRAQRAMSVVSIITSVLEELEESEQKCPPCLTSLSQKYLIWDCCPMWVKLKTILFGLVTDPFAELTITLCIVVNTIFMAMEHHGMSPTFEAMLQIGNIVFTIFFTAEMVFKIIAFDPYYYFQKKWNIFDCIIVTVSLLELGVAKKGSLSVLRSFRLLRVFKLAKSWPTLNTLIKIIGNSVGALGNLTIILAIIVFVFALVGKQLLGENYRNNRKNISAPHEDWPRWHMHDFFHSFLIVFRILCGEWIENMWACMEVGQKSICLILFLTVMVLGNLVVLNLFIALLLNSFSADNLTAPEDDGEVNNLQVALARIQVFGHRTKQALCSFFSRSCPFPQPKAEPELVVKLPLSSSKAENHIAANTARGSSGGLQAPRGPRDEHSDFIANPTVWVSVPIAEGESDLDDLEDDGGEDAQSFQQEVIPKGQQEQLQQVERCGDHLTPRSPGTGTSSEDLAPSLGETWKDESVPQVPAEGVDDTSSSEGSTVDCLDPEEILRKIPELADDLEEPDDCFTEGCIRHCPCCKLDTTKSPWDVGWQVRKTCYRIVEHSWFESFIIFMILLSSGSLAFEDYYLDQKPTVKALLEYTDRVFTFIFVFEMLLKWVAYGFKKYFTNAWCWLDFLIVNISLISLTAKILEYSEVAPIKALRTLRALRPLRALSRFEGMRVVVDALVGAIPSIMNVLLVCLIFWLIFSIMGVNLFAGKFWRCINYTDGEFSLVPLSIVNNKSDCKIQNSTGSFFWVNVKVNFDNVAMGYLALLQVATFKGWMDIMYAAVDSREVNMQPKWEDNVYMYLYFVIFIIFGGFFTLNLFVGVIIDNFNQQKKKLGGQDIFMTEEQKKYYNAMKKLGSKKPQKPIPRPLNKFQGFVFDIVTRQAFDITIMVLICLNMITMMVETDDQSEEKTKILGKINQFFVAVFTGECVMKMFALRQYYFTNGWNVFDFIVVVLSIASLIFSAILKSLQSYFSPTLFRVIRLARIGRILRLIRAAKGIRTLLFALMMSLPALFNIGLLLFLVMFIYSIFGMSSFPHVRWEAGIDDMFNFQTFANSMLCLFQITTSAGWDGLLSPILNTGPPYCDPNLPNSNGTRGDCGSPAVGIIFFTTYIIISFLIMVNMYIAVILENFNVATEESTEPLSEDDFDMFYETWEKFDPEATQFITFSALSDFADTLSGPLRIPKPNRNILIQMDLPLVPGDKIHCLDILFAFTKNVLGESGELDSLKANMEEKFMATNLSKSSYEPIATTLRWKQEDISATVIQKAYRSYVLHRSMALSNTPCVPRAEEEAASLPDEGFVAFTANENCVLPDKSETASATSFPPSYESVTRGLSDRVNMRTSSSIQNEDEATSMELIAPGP

SMILES | IC50 [µM]
CC1(Cn2nc(C3CC3F)c(C(F)(F)F)c2C(=O)Nc2ccnc(S(C)(=N)=O)c2)CC(F)(F)C1 (single isomer, unassigned) [Example 62b, 1-((3,3-Difluoro-1-methylcyclobutyl)methyl)-3-(2-fluorocyclopropyl)-N-(2-(S-methylsulfonimidoyl)pyridin-4-yl)-4-(trifluoromethyl)-1H-pyrazole-5-carboxamide] | ≤ 0.1
CC1(Cn2nc(C34CC(C3)C4)c(C(F)(F)F)c2C(=O)Nc2ccnc(S(C)(=N)=O)c2)CC(F)(F)C1 (single isomer, unassigned) [Example 58b, 3-(Bicyclo[1.1.1]pentan-1-yl)-1-((3,3-difluoro-1-methylcyclobutyl)methyl)-N-(2-(S-methylsulfonimidoyl)pyridin-4-yl)-4-(trifluoromethyl)-1H-pyrazole-5-carboxamide] | ≤ 0.1
CS(=N)(=O)c1cc(NC(=O)c2c(C(F)(F)F)c(C3CC3)nn2C[C@@H]2CCC(F)(F)C2)ccn1 (single isomer, unassigned) [Example 17d] | ≤ 0.1
CC1(Cn2nc(C3CC(F)(F)C3)c(C(F)(F)F)c2C(=O)Nc2ccnc(S(C)(=N)=O)c2)CC(F)(F)C1 (single isomer, unassigned) [Example 57a, 1-((3,3-Difluoro-1-methylcyclobutyl)methyl)-3-(3,3-difluorocyclobutyl)-N-(2-(S-methylsulfonimidoyl)pyridin-4-yl)-4-(trifluoromethyl)-1H-pyrazole-5-carboxamide] | ≤ 0.1

The remaining lines, values ahead:

IC50 [µM] | SMILES
≤ 0.1 | CC1(Cn2nc(C34CC(C3)C4)c(C(F)F)c2C(=O)Nc2ccnc(S(C)(=N)=O)c2)CC(F)(F)C1 (single isomer, unassigned) [Example 137a, 3-(Bicyclo[1.1.1]pentan-1-yl)-1-((3,3-difluoro-1-methylcyclobutyl)methyl)-4-(difluoromethyl)-N-(2-(S-methylsulfonimidoyl)pyridin-4-yl)-1H-pyrazole-5-carboxamide]
≤ 0.1 | CC1(Cn2nc(C3CC3(F)F)c(C(F)(F)F)c2C(=O)Nc2ccnc(S(C)(=N)=O)c2)CC(F)(F)C1 (single isomer, unassigned) [Example 63c, 1-((3,3-Difluoro-1-methylcyclobutyl)methyl)-3-(2,2-difluorocyclopropyl)-N-(2-(S-methylsulfonimidoyl)pyridin-4-yl)-4-(trifluoromethyl)-1H-pyrazole-5-carboxamide]
≤ 0.1 | CS(=N)(=O)c1cc(NC(=O)c2c(C(F)(F)F)c(C3CC3)nn2CC2(C(F)(F)F)CCCC2)ccn1 (single isomer, unassigned) [Example 98b, 3-cyclopropyl-N-(2-(S-methylsulfonimidoyl)pyridin-4-yl)-4-(trifluoromethyl)-1-((1-(trifluoromethyl)cyclopentyl)methyl)-1H-pyrazole-5-carboxamide]
≤ 0.1 | CS(=N)(=O)c1cc(NC(=O)c2c(C(F)(F)F)c(C3CC3)nn2CC2C(F)(F)C23CCC3)ccn1 (single isomer, unassigned) [Example 136d, 3-Cyclopropyl-1-((2,2-difluorospiro[2.3]hexan-1-yl)methyl)-N-(2-(S-methylsulfonimidoyl)pyridin-4-yl)-4-(trifluoromethyl)-1H-pyrazole-5-carboxamide]
≤ 0.1 | CC1(Cn2nc(C3CC34CC4)c(C(F)(F)F)c2C(=O)Nc2ccnc(S(C)(=N)=O)c2)CC(F)(F)C1 (single isomer, unassigned) [Example 64a, 1-((3,3-difluoro-1-methylcyclobutyl)methyl)-N-(2-(S-methylsulfonimidoyl)pyridin-4-yl)-3-(spiro[2.2]pentan-1-yl)-4-(trifluoromethyl)-1H-pyrazole-5-carboxamide]
≤ 0.1 | C[S@](=N)(=O)c1cc(NC(=O)c2c(C(F)(F)F)c(C3CC3)nn2C[C@]2(C)C[C@H](C(F)(F)F)C2)ccn1 (single isomer, unassigned) [Example 86b, 3-cyclopropyl-1-(((trans)-1-methyl-3-(trifluoromethyl)cyclobutyl)methyl)-N-(2-(S-methylsulfonimidoyl)pyridin-4-yl)-4-(trifluoromethyl)-1H-pyrazole-5-carboxamide]
